Data reported in patent US20230051589A1, “COMPOUNDS AND COMPOSITIONS FOR TREATING CONDITIONS ASSOCIATED WITH NLRP ACTIVITY” (Novartis AG, priority 2018, published 2023).

Test system: IL-1β production in PMA-differentiated THP-1 cells
Assay: IL-1β production in PMA-differentiated THP-1 cells stimulated with gramicidin (hTHP-1 assay, 2% fetal bovine serum; Procedures 1-3)
Format: cell-based, human
Conditions: Homo sapiens, THP-1, Table B1; hTHP-1 assay containing 2% fetal bovine serum, gramicidin stimulation, IL-1β readout; read-out: hTHP-1 IC50 (average)
Outline: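 PMA-primed THP-1 cells (20 ng/ml PMA, 16-18 h) in RPMI with 2% FBS were pre-incubated with compounds for 1 h, from 100 μM downward in 3-fold steps (0.37% DMSO final), then stimulated with 5 μM gramicidin for 2 h. IL-1β in the supernatant was quantified by HTRF.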

IC50 | SMILES
40 to 200 nM | CC(O)(CO)c1cc(F)c(S(N)(=O)=NC(=O)Nc2c3c(c(C#N)c4c2CCC4)CCC3)s1 (stereo not drawn) [Compound 411]

Same assay, conditions: Homo sapiens, THP-1, Table B3; hTHP-1 assay containing 2% fetal bovine serum, gramicidin stimulation, IL-1β readout; read-out: hTHP-1 IC50

IC50 | SMILES
40 to 200 nM | CC(O)(CO)c1nc(CO)c(S(N)(=O)=NC(=O)Nc2c3c(cc4c2CC4)CCC3)s1 (stereo not drawn) [Example 757, 2-(1,2-Dihydroxypropan-2-yl)-4-(hydroxymethyl)-N′-((2,4,5,6-tetrahydro-1H-cyclobuta[f]inden-3-yl)carbamoyl)thiazole-5-sulfonimidamide]
40 to 200 nM | NS(=O)(=NC(=O)Nc1c2c(cc3c1CCC3)CCC2)c1cc2c(s1)CCNC2 (stereo not drawn) [Example 724, N′-((1,2,3,5,6,7-hexahydro-s-indacen-4-yl)carbamoyl)-4,5,6,7-tetrahydrothieno[3,2-c]pyridine-2-sulfonimidamide]
200 to 1000 nM | C[C@](O)(COCCOCCOCCOCCOCc1ccccc1)c1ncc(S(N)(=O)=NC(=O)Nc2c3c(cc4c2CCC4)CCC3)s1 (stereo partly drawn) [Example 761, N-((1,2,3,5,6,7-hexahvdro-s-indacen-4-yl)carbamoyl)-2-((S)-16-hydroxy-1-phenyl-2,5,8,11,14-pentaoxaheptadecan-16-yl)thiazole-5-sulfonimidamide]
200 to 1000 nM | NS(=O)(=NC(=O)Nc1c2c(cc3c1CC3)CCC2)c1sc(CN2CCC2)cc1F (stereo not drawn) [Example 718, 5-(Azetidin-1-ylmethyl)-3-fluoro-N′-((2,4,5,6-tetrahydro-1H-cyclobuta[f]inden-3-yl)carbamoyl)thiophene-2-sulfonimidamide]

Same assay, conditions: Homo sapiens, THP-1, hTHP-1 assay containing 2% fetal bovine serum, Table B2, class symbols; read-out: IC50

IC50 | SMILES
200 to 1000 nM | CC(C)c1cc2c(cc1NC(=O)N=S(N)(=O)c1cnc(C(C)(C)O)s1)CCC2 (stereo not drawn) [Example 494, 2-(2-Hydroxypropan-2-yl)-N′-((6-isopropyl-2,3-dihydro-1H-inden-5-yl)earbamoyl)thiazole-5-sulfonimidamide]
5000 to 30000 nM | N#Cc1c2c(c(NC(=O)N=S(N)(=O)c3cnc(C(O)(CO)CO)s3)c3c1CCC3)CCC2 (stereo not drawn) [Example 678, N′-((8-cyano-1,2,3,5,6,7-hexahydro-s-indacen-4-yl)carbamoyl)-2-(1,2,3-trihydroxypropan-2-yl)thiazole-5-sulfonimidamide]
200 to 1000 nM | CCn1ccc(S(N)(=O)=NC(=O)Nc2c3c(cc4c2CC4)CCC3)n1 (stereo not drawn) [Compound 916]
200 to 1000 nM | C[C@@](O)(CO)c1ncc(S(N)(=O)=NC(=O)Nc2c3c(cc4c2C(=O)CC4)CCC3)s1 (stereo partly drawn) [Compound 920d]
1000 to 5000 nM | CN1CCC[C@@H](c2ccc([S@@](N)(=O)=NC(=O)Nc3c4c(cc5c3CC5)CCC4)c(F)c2)C1 [Compound 911d]
40 to 200 nM | CC(C)(O)c1nc(CO)c(S(N)(=O)=NC(=O)Nc2c3c(cc4c2CCC4)CCC3)s1 (stereo not drawn) [Example 475, N′-((1,2,3,5,6,7-hexahydro-s-indacen-4-yl)carbamoyl)-4-(hydroxymethyl)-2-(2-hydroxypropan-2-yl)thiazole-5-sulfonimidamide]
200 to 1000 nM | CC(C)(O)c1nc(S(N)(=O)=NC(=O)Nc2c3c(cc4c2CCC4)CCC3)cs1 (stereo not drawn) [Example 440, N-((1,2,3,5,6,7-hexahydro-s-indacen-4-yl)carbamoyl)-2-(2-hydroxypropan-2-yl)thiazole-4-sulfonimidamide]
40 to 200 nM | CC(C)(CO)c1ncc(S(N)(=O)=NC(=O)Nc2c3c(c(C#N)c4c2CCC4)CCC3)s1 (stereo not drawn) [Compound 913]
1000 to 5000 nM | CC(C)c1cnc(S(N)(=O)=NC(=O)Nc2c3c(cc4c2CCC4)CCC3)c(F)c1 (stereo not drawn) [Compound 903]
40 to 200 nM | CC(C)(CO)c1ncc([S@](N)(=O)=NC(=O)Nc2c3c(c(C#N)c4c2CCC4)CCC3)s1 [Compound 913b]

Same assay, conditions: Homo sapiens, THP-1, hTHP-1 assay containing 2% fetal bovine serum, Table B2, given as bound; read-out: IC50

IC50 | SMILES
> 30000 nM | CN1CCC[C@@H](c2ccc([S@](N)(=O)=NC(=O)Nc3c4c(cc5c3CC5)CCC4)c(F)c2)C1 [Compound 911a]
> 30000 nM | CC(C)(O)c1ccc([S@@](N)(=O)=NC(=O)Nc2c3c(cc4c2C(=O)CC4)CCC3)cn1 [Compound 804a]
> 30000 nM | CC(C)Cc1ccc(S(N)(=O)=NC(=O)Nc2c3c(cc4c2CCC4)CCC3)cc1 (single isomer, unassigned) [Example 618, (S) or (R)-N′-((1,2,3,5,6,7-hexahydro-s-indacen-4-yl)carbamoyl)-4-isobutylbenzene-sulfonimidamide]

Same assay, conditions: Table B1; hTHP-1 assay containing 2% fetal bovine serum, gramicidin stimulation, IL-1β readout; read-out: hTHP-1 IC50 (average)

IC50 | SMILES
200 to 1000 nM | CN(C)Cc1ccc(S(N)(=O)=NC(=O)Nc2c3c(cc4c2CCC4)CCC3)nc1 (single isomer, unassigned) [Example 413, (R) or (S)-5-((dimethyl-amino)methyl)-N′-((1,2,3,5,6,7-hexahydro-s-indacen-4-yl)carbamoyl)-pyridine-2-sulfonimid-amide]
5000 to 30000 nM | CNS(=O)(=NC(=O)Nc1c2c(c(F)c3c1CCC3)CCC2)c1cc(C(C)(C)O)cs1 (single isomer, unassigned) [Example 181]
40 to 200 nM | CC(c1ccc(S(N)(=O)=NC(=O)Nc2c3c(cc4c2CCC4)CCC3)cc1)N(C)C (single isomer, unassigned) [Example 372, (R) or (S)-4-(1-(dimethyl-amino)ethyl)-N′-((1,2,3,5,6,7-hexahydro-s-indacen-4-yl)carbamoyl)-benzenesulfonimidamide]

Same assay, conditions: Table B3; hTHP-1 assay containing 2% fetal bovine serum, gramicidin stimulation, IL-1β readout; read-out: hTHP-1 IC50

IC50 | SMILES
5000 to 30000 nM | CC(NC1CCC1)c1ccc(S(N)(=O)=NC(=O)Nc2c3c(cc4c2CC4)CCC3)c(F)c1 (single isomer, unassigned) [Example 850, (R, S) or (S, S) -4-(1-(cyclobutylamino)ethyl)-2-fluoro-N′-((2,4,5,6-tetrahydro-1H-cyclobuta[f]inden-3-yl)carbamoyl)benzenesulfonimidamide]
1000 to 5000 nM | CC(C)(O)c1ccnc(S(N)(=O)=NC(=O)Nc2c3c(c(C#N)c4c2CCC4)CCC3)c1 (single isomer, unassigned) [Example 828, (S) or (R)-N′-((8-cyano-1,2,3,5,6,7-hexahydro-s-indacen-4-yl)carbamoyl)-4-(2-hydroxypropan-2-yl)pyridine-2-sulfonimidamide]
200 to 1000 nM | C[C@](O)(CO)c1ncc(S(N)(=O)=NC(=O)Nc2c3c(cc4c2CC4)CCC3)s1 (single isomer, unassigned) [Example 816, (S) or (R)-2-((S)-1,2-dihydroxypropan-2-yl)-N′-((2,4,5,6-tetrahydro-1H-cyclobuta[f]inden-3-yl)carbamoyl)thiazole-5-sulfonimidamide]

Same assay, conditions: hTHP-1 assay containing 2% fetal bovine serum, Table B2, class symbols; read-out: IC50

SMILES | IC50
COCc1nc(C(C)(C)O)sc1S(N)(=O)=NC(=O)Nc1c2c(c(C#N)c3c1CCC3)CCC2 (single isomer, unassigned) [Example 532, (S) or (R)-N′-((8-cyano-1,2,3,5,6,7-hexahydro-s-indacen-4-yl)carbamoyl)-2-(2-hydroxypropan-2-yl)-4-(methoxymethyl) thiazole-5-suifoiiimidamide] | 1000 to 5000 nM
CC(C)(O)c1nc(CO)c(S(N)(=O)=NC(=O)Nc2c3c(cc4c2CCC4)CCC3)s1 (single isomer, unassigned) [Example 542, (S) or (R)-N′-((1,2,3,5,6,7-hexahydro-s-indacen-4-yl)carbamoyl)-4-(hydroxymethyl)-2-(2-hydroxypropan-2-yl)thiazole-5-sulfonimidamide] | 1000 to 5000 nM
CO[C@H]1COc2c(S(N)(=O)=NC(=O)Nc3c4c(cc5c3CC5)CCC4)cnn2C1 (single isomer, unassigned) [Example 534, (R,6R) or (S,6R)-6-methoxy-N′-((2,4,5,6-tetrahydro-1H-cyclobuta[f]inden-3-yl)carbamoyl)-6,7-dihydro-5H-pyrazolo [5,1-b][1,3]oxazine-3-sulfonimidamide] | 8 to 40 nM
CC(C)(O)c1csc(S(N)(=O)=NC(=O)Nc2c3c(cc4c2CC4)CCC3)c1 (single isomer, unassigned) [Example 561, (S) or (R)-4-(2-hydroxypropan-2-N′-((2,4,5,6-tetrahydro-1H-cyclobuta[f]inden-3 - y])carbamoyl) thiophene-2-sulfonimidamide] | 200 to 1000 nM

Next, values leading:

IC50 | SMILES
5000 to 30000 nM | NS(=O)(=NC(=O)Nc1c2c(cc3c1CCC3)CCC2)c1cnn2c1OCCC2 (single isomer, unassigned) [Example 568, (S) or (R)-N′-((1,2,3,5,6,7-hexahydro-s-indacen-4-yl)carbamoyl)-6,7-dihydro-5H-pyrazolo[5,1-b][1,3]oxazine-3-sulfonimidamide]
5000 to 30000 nM | CC(C)(O)c1csc(S(N)(=O)=NC(=O)Nc2c3c(cc4c2CCC4=O)CCC3)c1 (single isomer, unassigned) [Example 599, (S) or (R)-4-(2-hydroxypropan-2-yl)-N′-((1-oxo-1,2,3,5,6,7-hexahydro-s-indacen-4-yl)carbamoyl) thiophene-2-sulfonimidamide]
1000 to 5000 nM | CC(C)(O)c1cc(C#N)cc(S(N)(=O)=NC(=O)Nc2c3c(c(C#N)c4c2CCC4)CCC3)c1 (single isomer, unassigned) [Example 578, (R) or (S)-3-cyano-N′-((8-cyano-1,2,3,5,6,7-hexahydro-s-indacen-4-yl)carbamoyl)-5-(2-hydroxypropan-2-yl) benzenesulfonimidamide]
5000 to 30000 nM | CC(C)(O)c1cnc(S(N)(=O)=NC(=O)Nc2c3c(cc4c2C(O)CC4)CCC3)s1 (single isomer, unassigned) [Example 653, (S,S) or (S,R)-N′-((3-hydroxy-1,2,3,5,6,7-hexahydro-s-indacen-4-yl)carbamoyl)-5-(2-hydroxypropan-2-yl)thiazole-2-sulfonimidamide]

Same assay, conditions: hTHP-1 assay containing 2% fetal bovine serum, Table B2, given as bound; read-out: IC50

IC50 | SMILES
> 30000 nM | NS(=O)(=NC(=O)Nc1c2c(cc3c1CCC3)CCC2)c1ccc(C2CCCC2)nc1 (single isomer, unassigned) [Example 587, (R) or (S)-6-cyclopentyl-N′-((1,2,3,5,6,7-hexahydro-s-indacen-4-yl)carbamoyl)pyridine-3-sulfonimidamide]
